Test results from ChEMBL document CHEMBL1909046, “DrugMatrix in vitro pharmacology data”.

How the values were obtained:
[1] = molecular target: Tyrosine-protein kinase Fyn (Homo sapiens, UniProt P06241); assay: biochemical; type: cell-based, Insect cells; conditions: insect cells;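 further: enzymatic inhibition of Fyn kinase activity measured with Poly(Glu:Tyr) as the phosphorylation substrate; in other assays of this panel Not Active means under 50% inhibition at 10 µM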
[2] = molecular target: T1, Progesterone receptor (Bos taurus, UniProt Q690N0); assay: DRUGMATRIX: Progesterone radioligand binding (ligand: [3H] R-5020); type: tissue-based, Uterus; conditions: Not Active = under 50% inhibition at 10 µM
T1 sequence (Q690N0 whole entry): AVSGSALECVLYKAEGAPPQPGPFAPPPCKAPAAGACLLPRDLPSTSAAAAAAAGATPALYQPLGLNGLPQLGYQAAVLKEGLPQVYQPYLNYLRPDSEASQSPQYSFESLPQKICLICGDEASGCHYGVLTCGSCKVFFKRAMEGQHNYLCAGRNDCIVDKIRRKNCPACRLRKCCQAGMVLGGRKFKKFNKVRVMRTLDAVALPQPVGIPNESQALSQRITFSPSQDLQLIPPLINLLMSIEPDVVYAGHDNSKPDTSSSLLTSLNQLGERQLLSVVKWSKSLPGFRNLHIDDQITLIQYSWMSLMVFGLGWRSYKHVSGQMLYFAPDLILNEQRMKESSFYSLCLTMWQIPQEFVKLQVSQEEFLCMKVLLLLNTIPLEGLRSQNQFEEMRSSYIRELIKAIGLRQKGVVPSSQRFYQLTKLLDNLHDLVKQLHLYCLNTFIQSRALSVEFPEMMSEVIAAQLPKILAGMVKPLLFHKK

[3] = DRUGMATRIX: Phorbol Ester radioligand binding (ligand: [3H] PDBu); type: cell membranes, Mus musculus, ICR, Brain, Membrane; conditions: Not Active = under 50% inhibition at 10 µM
[4] = DRUGMATRIX: Glutamate, NMDA, Agonism radioligand binding (ligand: [3H] CGP-39653); type: cell membranes, Rattus norvegicus, Wistar, Cerebral cortex, Membrane; conditions: Not Active = under 50% inhibition at 10 µM
[5] = molecular target: T2, Alpha-1B adrenergic receptor (Rattus norvegicus, UniProt P15823); assay: DRUGMATRIX: Alpha-1B adrenergic receptor radioligand binding (ligand: prazosin); type: cell membranes, Wistar, Liver, Membrane; conditions: Not Active = under 50% inhibition at 10 µM
T2 sequence (P15823 whole entry): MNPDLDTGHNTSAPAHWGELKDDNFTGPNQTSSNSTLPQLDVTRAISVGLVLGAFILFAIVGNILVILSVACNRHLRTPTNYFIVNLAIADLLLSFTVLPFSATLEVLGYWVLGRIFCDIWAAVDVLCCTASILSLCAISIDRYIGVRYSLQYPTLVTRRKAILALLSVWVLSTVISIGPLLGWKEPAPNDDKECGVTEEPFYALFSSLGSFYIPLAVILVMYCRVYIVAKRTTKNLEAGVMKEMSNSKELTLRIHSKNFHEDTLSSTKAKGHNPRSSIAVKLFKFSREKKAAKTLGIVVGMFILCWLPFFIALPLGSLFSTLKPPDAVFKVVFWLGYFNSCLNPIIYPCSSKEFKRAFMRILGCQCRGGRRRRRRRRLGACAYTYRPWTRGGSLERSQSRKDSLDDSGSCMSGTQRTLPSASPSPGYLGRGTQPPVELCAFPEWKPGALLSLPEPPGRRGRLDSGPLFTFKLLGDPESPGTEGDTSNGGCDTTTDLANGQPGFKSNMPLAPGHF

[6] = molecular target: Sodium-dependent noradrenaline transporter (Homo sapiens, UniProt P23975); assay: DRUGMATRIX: Norepinephrine Transporter radioligand binding (ligand: [125I] RTI-55); type: cell membranes, MDCK, Membrane; conditions: mdck; Not Active = under 50% inhibition at 10 µM
Sodium-dependent noradrenaline transporter, sequence (P23975 whole entry): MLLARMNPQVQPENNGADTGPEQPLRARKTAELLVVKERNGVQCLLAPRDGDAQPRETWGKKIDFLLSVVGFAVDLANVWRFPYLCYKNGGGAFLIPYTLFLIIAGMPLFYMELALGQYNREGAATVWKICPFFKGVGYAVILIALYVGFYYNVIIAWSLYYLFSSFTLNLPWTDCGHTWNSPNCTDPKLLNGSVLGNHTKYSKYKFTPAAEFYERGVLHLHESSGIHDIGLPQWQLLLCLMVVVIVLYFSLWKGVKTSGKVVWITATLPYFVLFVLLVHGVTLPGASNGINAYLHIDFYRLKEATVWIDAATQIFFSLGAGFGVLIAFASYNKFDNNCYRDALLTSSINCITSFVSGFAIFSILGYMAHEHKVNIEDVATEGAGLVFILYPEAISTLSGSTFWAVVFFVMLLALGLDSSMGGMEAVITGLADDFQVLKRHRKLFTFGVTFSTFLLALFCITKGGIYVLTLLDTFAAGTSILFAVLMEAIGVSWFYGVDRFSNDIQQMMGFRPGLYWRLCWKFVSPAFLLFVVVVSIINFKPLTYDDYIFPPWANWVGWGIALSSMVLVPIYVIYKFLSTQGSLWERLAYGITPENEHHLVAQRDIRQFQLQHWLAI

Tyrosine-protein kinase Fyn, sequence (P06241 whole entry): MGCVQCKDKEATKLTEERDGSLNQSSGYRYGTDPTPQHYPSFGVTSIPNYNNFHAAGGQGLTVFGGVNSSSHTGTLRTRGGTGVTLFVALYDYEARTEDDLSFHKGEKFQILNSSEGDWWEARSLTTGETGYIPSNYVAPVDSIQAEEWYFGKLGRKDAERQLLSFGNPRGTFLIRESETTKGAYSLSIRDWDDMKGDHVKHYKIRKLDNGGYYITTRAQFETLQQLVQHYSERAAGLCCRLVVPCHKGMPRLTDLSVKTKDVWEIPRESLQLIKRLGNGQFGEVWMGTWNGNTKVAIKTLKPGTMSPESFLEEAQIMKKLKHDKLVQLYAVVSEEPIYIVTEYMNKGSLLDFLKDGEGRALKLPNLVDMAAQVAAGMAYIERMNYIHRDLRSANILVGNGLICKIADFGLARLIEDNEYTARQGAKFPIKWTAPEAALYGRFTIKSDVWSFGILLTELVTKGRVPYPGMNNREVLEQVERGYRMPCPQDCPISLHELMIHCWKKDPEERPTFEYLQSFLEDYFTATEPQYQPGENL

NYSTATIN
Not Active: IC50 [1] | Ki [1] | IC50 [2] | Ki [2] | IC50 [3] | Ki [3] | IC50 [4] | Ki [4] | IC50 [5] | Ki [5] | IC50 [6] | Ki [6]
